Data published in US4690930A, “Pyrazolo[4,3-c]quinoline-3-one and imidazo[4,3-c]cinnolin-3-one derivatives and their use as psychotropic agents” (Shionogi & Co., Ltd, priority 1984, dated 1987).

What follows are molecules tested against benzodiazepine receptor (assay: Binding test to benzodiazepine receptor (inhibition of specific binding of tritium labeled diazepam)). Conditions: 2 nM tritium labeled diazepam, rat cerebral cortex, 0° C., 60 minutes; Ki calculated from IC50.
Design: species or system Wistar rats (cerebral cortex)
Experimental: Binding test to benzodiazepine receptor
This test was carried out in the modified method of Moeler & Okada, Science, 198, 849-851 (1977).
Receptor preparation was provided from the cerebral cortex of Wistar rats (male, 11 to 13 weeks age). Inhibitory action of the test compound on the specific binding of tritium labeled diazepam to the receptor was evaluated as follows. 2 nM tritium labeled diazepam and an aqueous solution of the test compound at 5 or 6 concentrations were incubated with the receptor preparation at 0° C. for 60 minutes. The 50% inhibitory concentration (IC50) was measured by the concentration-response curve.
The inhibitory constant (Ki) was calculated according to the following equation, in which Kd is the dissociation constant of the tritium labeled diazepam and L is the concentration of the labeled ligand. [formula]
Molecule `Cc1ccc(-n2nc3c4ccccc4[nH]cc-3c2=O)s1` [Ic1 -1, 2-[2-(5-Methylthienyl)]-2,5-dihydro-3H-pyrazolo[4,3-c]quinolin-3-one] has a Ki of 0.35 nM. `CCc1ccc(-n2nc3c4ccccc4[nH]cc-3c2=O)s1` [Ic1 -2] gave a Ki of 1.51 nM. Molecule `Cc1cc(-n2nc3c4ccccc4[nH]cc-3c2=O)sc1C` [Ic1 -3] has a Ki of 0.63 nM. `CCCCc1ccc(-n2nc3c4ccccc4[nH]cc-3c2=O)s1` [Ic1 -5] was tested, and the Ki was 1.53 nM. `Cc1ccc2[nH]cc3c(=O)n(-c4ccc(C)s4)nc-3c2c1` [Ic1 -6] showed a Ki of 0.22 nM. `COc1ccc2[nH]cc3c(=O)n(-c4ccc(C)s4)nc-3c2c1` [Ic1 -7] was tested, and the Ki was 0.17 nM. With `Cc1ccc(-n2nc3c4cc(Cl)ccc4[nH]cc-3c2=O)s1` [Ic1 -8] the Ki was 0.31 nM. `Cc1ccc(-n2nc3c4cc(F)ccc4[nH]cc-3c2=O)s1` [Ic1 -9] showed a Ki of 0.14 nM. In the case of `Cc1ccc2c3nn(-c4ccc(C)s4)c(=O)c-3c[nH]c2c1` [Ic1 -10], the Ki is reported as 1.44 nM. Work on `Cc1ccc(-n2nc3c4ccc(Cl)cc4[nH]cc-3c2=O)s1` [Ic1 -11] yielded a Ki of 1.11 nM. In the case of `Cc1csc(-n2nc3c4ccccc4[nH]cc-3c2=O)c1` [Ic1 -12], the Ki is reported as 0.38 nM. `O=c1c2c[nH]c3ccccc3c-2nn1-c1ccsc1` [Ic2 -1, 2-(3-Thienyl)-2,5-dihydro-3H-pyrazolo[4,3-c]quinolin-3-one] showed a Ki of 0.29 nM. In the case of `Cc1cc(-n2nc3c4ccccc4[nH]cc-3c2=O)cs1` [Ic2 -2, 2-[3-(5-methylthienyl)]-2,5-dihydro-3H-pyrazolo[4,3-c]quinolin-3-one], the Ki is reported as 0.45 nM. With `Cc1ccc2[nH]cc3c(=O)n(-c4csc(C)c4)nc-3c2c1` [Ic2 -4] the Ki was 0.3 nM. Molecule `COc1ccc2[nH]cc3c(=O)n(-c4csc(C)c4)nc-3c2c1` [Ic2 -5, 2-[3-(5-methylthienyl)]-8-methoxy-2,5-dihydro-3H-pyrazolo[4,3-c]quinolin-3-one] has a Ki of 0.39 nM. For `Cc1cc(-n2nc3c4cc(Cl)ccc4[nH]cc-3c2=O)cs1` [Ic2 -6], the Ki was 0.58 nM. `Cc1cc(-n2nc3c4cc(F)ccc4[nH]cc-3c2=O)cs1` [Ic2 -7] showed a Ki of 0.17 nM. `Cc1ccc2c3nn(-c4csc(C)c4)c(=O)c-3c[nH]c2c1` [Ic2 -8] gave a Ki of 1.24 nM. For `Cc1cc(-n2nc3c4ccc(Cl)cc4[nH]cc-3c2=O)cs1` [Ic2 -9], the Ki was 0.96 nM.

What follows are molecules tested on male mice (assay: Inverse agonist activity (oral compound 1 hour before subcutaneous pentylenetetrazol, mice)). Conditions: Mus musculus, 1 hour before s.c. 75 mg/kg pentylenetetrazol (subconvulsive dose), 8-16 male mice a group, Probit method, read-out: ED50 (dose at which 50% of mice died).
Type: in vivo
Experimental: Inverse agonist activity was evaluated by the following procedure.
The test compound was administered orally to 8-16 male mice a group, 1 hour before a subcutaneous administration of 75 mg/kg of pentylenetetrazol (a subconvulsive dose). The dose (ED50) at which 50% of mice died, was calculated by the Probit method.
`O=c1c2c[nH]c3ccccc3c-2nn1-c1nccs1` [Control 2, reference compound] gave an ED50 of 87 mg/kg. `Cc1cc(-n2nc3c4ccccc4[nH]cc-3c2=O)cs1` [Ic2 -2, 2-[3-(5-methylthienyl)]-2,5-dihydro-3H-pyrazolo[4,3-c]quinolin-3-one] was tested, and the ED50 was 1.67 mg/kg.
